Test results from patent US11077119B2, “Enhanced brain bioavailability of galantamine by selected formulations and transmucosal administration of lipophilic prodrugs” (Neurodyn Life Sciences Inc., priority 2012, dated 2021).
Where “and” joins values, the source holds several entries; their conditions need not be identical. Identical values can stand only once. Like-named read-outs stand apart in the source and are kept apart here.

Tests used:
[1] = target: acetylcholinesterase (AChE) (Homo sapiens, UniProt P22303); assay: esterase inhibition compared with galantamine; assay type: biochemical; conditions: read-out: esterase inhibition, relative to that induced by the same concentration of galantamine
Experimental: Said derivative of galantamine can be obtained by a one-step chemical modification of the parent drug (galantamine). The modification almost completely abolishes the pharmacological activity of galantamine on its two major targets in the human body, nicotinic acetylcholine receptor (nAChR) and acetylcholinesterase (AChE).
At the physiologically interesting concentration of 1 μM, Memogain has less than 4% of the esterase inhibition induced by the same concentration of galantamine.

physchem = assay type: physicochemical
Experimental: Free Base in Water: 26 μg/ml (66 μM)
Maleate in Water: 7.5 mg/ml (15 mM)
Maleate in 0.9% NaCl: 0.6 mg/ml (1.5 mM)
Free Base in Cyclodextrin-Vehicle^1): 8.9 mg/ml (23 mM)
Maleate in Cyclodextrin-Vehicle): 21 mg/ml (41 mM) ^1) 15% (109 mM) Hydroxypropyl-β-cyclodextrin, 96 mM NaCl

[2] = 3 mg/kg
Experimental: The pharmacokinetics and brain-to-blood concentration ratios (BBRC) of several galantamine derivatives and their cleavage product galantamine were evaluated after intranasal administration in Swiss albino mice at a dose of 3 mg/kg. After extraction from brain and blood, the drug concentrations were determined by LC/MS/MS. For comparison, the BBRC for the parent drug galantamine was also determined.

[3] = assay type: in vivo
Source text: Intranasal dosing can be done with simple spray-pump methods, although also many other methods can be used.

[4] = tested on: scopolamine-induced amnesia in mice; assay: Reversal of scopolamine-induced amnesia in T-maze; assay type: in vivo; conditions: scopolamine i.p.; intranasal Memogain versus galantamine
Source text: We therefore used pharmacodynamics studies to determine the effective concentrations of parent drug in suitable experimental conditions, such as the reversal of scopolamine-induced temporary amnesia in the T-maze cognitive paradigm studied in mice. These studies confirmed that several fold higher (up to 20 fold) BBRC of parent drug (and related effectiveness in cognitive enhancement) can be achieved by transmucosal delivery of pro-drug formulations via the nasal or buccal cavity.
Mice were treated with scopolamine to induce acute amnesia and were then tested for performance in a T-maze, in the absence or presence of […] galantamine or intranasal Memogain (FIG. 7). […] Mice were challenged with Scopolamine i.p. in a T-maze assay to induce disorientation/amnesia (set to 0% performance recovery). Co-application of galantamine (i.p.) or of Memogain® (i.n.) rescues orientation in the T-maze in a dose-dependent manner.

[5] = design: species or system Wistar rats; conditions: rat, in vivo, 3 mg/kg
Experimental: The first-pass effect of Gln-1062 was evaluated after intravenous and intraportal dosing of 3 mg/kg in Wistar rats (FIG. 8).

in vivo = assay: in vivo
Experimental: The study was performed in dogs. A single dose of 4 mg/kg intranasal Memogain was administered and the plasma levels of Memogain and liberated galantamine were determined as a function of time after administration.

ferrets = assay: Gastro-intestinal side effects in ferrets; conditions: i.p.
Experimental: These studies were performed in ferrets that were dosed i.p. with either 20 mg/kg galantamine (maximal tolerated dose), or with 20, 40 and 80 mg/kg Memogain, respectively.

dogs [6] = assay: Safety after intravenous bolus; assay type: in vivo
Experimental: Example 13. Memogain is at Least 10 Times Safer than Galantamine
This study was performed in dogs, and both drugs were administered as intravenous bolus. The lower toxicity of Memogain is due to the much lower steady-state plasma levels of galantamine resulting from enzymatic cleavage of the pro-drug (FIG. 11).

rats [7] = conditions: rat, in vivo
rats [8] = conditions: rat, in vivo; remark: listed apart in the source
dogs [9] = conditions: dog, in vivo
[10] = in vivo
[11] = Solubility test of Memogain salts in water (HPLC); assay type: physicochemical; conditions: after warming to >50° C.; precipitation seeding avoided
Experimental: 10 mg of the corresponding salt and 100 microliters of water were sonicated for 5 min at r.t. The resulting solution or suspension was centrifuged for 3 min. and filtered using a filter tip. 10 microliters of the filtrate was transferred in a volumetric flask and diluted to 10.0 ml with water to obtain the sample solution. 20 microliters of this sample solution was injected for HPLC and the amount of Memogain quantified using a Merck Chromolith RP18 column and a gradient of 5% to 60% acetonitrile and water, both solvents containing 0.1% formic acid, injection volume: 20 microliters.

[12] = mouse, in vivo
Experimental: Mice were injected with 3 mg/kg i.v. of either Memogain or galantamine.

acetylcholinesterase (AChE), sequence (P22303 32-614): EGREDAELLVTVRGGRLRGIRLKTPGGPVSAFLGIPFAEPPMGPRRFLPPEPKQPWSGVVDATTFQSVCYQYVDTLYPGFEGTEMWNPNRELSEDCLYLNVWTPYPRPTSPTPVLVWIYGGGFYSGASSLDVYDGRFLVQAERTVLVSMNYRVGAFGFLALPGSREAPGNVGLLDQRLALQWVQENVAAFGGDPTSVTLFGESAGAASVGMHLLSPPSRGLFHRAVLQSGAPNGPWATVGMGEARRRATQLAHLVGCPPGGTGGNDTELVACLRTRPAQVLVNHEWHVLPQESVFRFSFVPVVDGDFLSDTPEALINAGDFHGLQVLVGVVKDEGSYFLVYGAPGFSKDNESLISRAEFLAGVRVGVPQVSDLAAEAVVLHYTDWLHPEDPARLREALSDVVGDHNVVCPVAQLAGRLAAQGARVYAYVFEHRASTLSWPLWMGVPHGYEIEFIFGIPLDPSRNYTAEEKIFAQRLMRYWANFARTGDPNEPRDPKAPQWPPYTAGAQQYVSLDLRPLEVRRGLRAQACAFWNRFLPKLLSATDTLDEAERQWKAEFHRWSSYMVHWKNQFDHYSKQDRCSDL

SMILES: COc1ccc2c3c1O[C@H]1C[C@@H](OC(=O)c4ccccc4)C=C[C@@]31CCN(C)C2 [GLN-1062, (4aS,6R,8aS)-4a,5,9,10,11,12-hexahydro-3-methoxy-11-methyl-6H-Benzofuro[3a,3,2-ef][2]benzazepin-6-ol, 6-benzoate]
- inhibition at 1 µM [1]: < 4%
- solubility (physchem; aqueous with cosolvent or surfactant or cyclodextrin): 8900 µg/mL and 23000 µM
- solubility (physchem; water): 26 µg/mL and 66 µM
- BBRC compared with galantamine ([2]; mouse, in vivo): particularly large BBRC
- GI side effects ([3]; in vivo): no GI side effects were observed
- reversal of acutely induced amnesia (T-maze performance) [4]: more effective than galantamine
- maximal concentration levels in the brain, compared with i.v. administration [5]: similarly high maximal concentration levels
- half-life (in vivo; dog): 1.5 h
- Kp at 120 min (in vivo; dog, 4 mg/kg): 9
- lower toxicity as compared to galantamine (ferrets; from dose dependency of adverse effects (20, 40, 80 mg/kg)): at least 4 times
- safety compared with galantamine (dogs [6]): at Least 10 Times
- adverse effects compared with galantamine (rats [7]): much less adverse effects
- adverse effects compared with galantamine (rats [8]): much less adverse effects
- adverse effects compared with galantamine (dogs [9]): much less adverse effects
- GI-related side effects [10]: GI-related side effects had practically disappeared

SMILES: COc1ccc2c3c1O[C@H]1C[C@@H](OC(=O)c4ccccc4)C=C[C@@]31CCN(C)C2.O=C(O)C(O)C(O)C(O)C(O)CO [Memogain gluconate, galantamine benzoate gluconate]
- stability of metastable high-concentration aqueous solution [11]: stable for hours and days
- BBRC compared with galantamine ([2]; intranasal, LC/MS/MS): much larger BBRC than galantamine
- local sensation on intranasal dosing ([3]; intranasal): no burning sensation to nose

SMILES: COc1ccc2c3c1O[C@H]1C[C@@H](OC(=O)c4ccccc4)C=C[C@@]31CCN(C)C2.O=C(O)/C=C\C(=O)O [Memogain maleate]
- Solubility in 0.9% NaCl (physchem; 0.9% NaCl): 0.6 mg/ml and 1.5 mM
- Solubility in Cyclodextrin-Vehicle (physchem; 15% (109 mM) Hydroxypropyl-β-cyclodextrin, 96 mM NaCl): 21 mg/ml and 41 mM
- Solubility in Water (physchem; water): 7.5 mg/ml and 15 mM

SMILES: COc1ccc2c3c1O[C@H]1C[C@@H](O)C=C[C@@]31CCN(C)C2 [galantamine]
- BBRC [12]: ~1:1
- Kp at 120 min (in vivo; in vivo, 4 mg/kg): 1 to 1.5
- half-life (in vivo; in vivo, 4 mg/kg): 6 h
- maximal tolerated dose (ferrets): 20 mg/kg
